Test results published in the NIST ThermoML archive (doi:10.1021/je200811n).

Conditions: Hot wire method

C=C(F)C(F)(F)F [2,3,3,3-tetrafluoro-1-propene]
Conditions	thermal conductivity [W/m/K]
303.53 K, 5728 kPa, Liquid	0.06591
303.55 K, 638 kPa, Gas	0.01428
303.58 K, 863 kPa, Liquid	0.06214
303.62 K, 95 kPa, Gas	0.01418
303.69 K, 16013 kPa, Liquid	0.0724
303.7 K, 10745 kPa, Liquid	0.06899
303.7 K, 20552 kPa, Liquid	0.07462
303.71 K, 509 kPa, Gas	0.0142
303.73 K, 5727 kPa, Liquid	0.06571
303.76 K, 199 kPa, Gas	0.01415
303.8 K, 863 kPa, Liquid	0.06166
303.93 K, 349 kPa, Gas	0.01413
304.07 K, 95 kPa, Gas	0.01428
304.07 K, 16014 kPa, Liquid	0.07249
304.07 K, 20551 kPa, Liquid	0.07457
304.1 K, 10744 kPa, Liquid	0.06936
304.15 K, 5727 kPa, Liquid	0.06587
304.2 K, 199 kPa, Gas	0.0142
304.24 K, 861 kPa, Liquid	0.06192
304.28 K, 20546 kPa, Liquid	0.07468
304.3 K, 16011 kPa, Liquid	0.07229
304.33 K, 10741 kPa, Liquid	0.069
304.39 K, 5724 kPa, Liquid	0.06553
304.5 K, 861 kPa, Liquid	0.06141
304.55 K, 95 kPa, Gas	0.01429
311.19 K, 200 kPa, Gas	0.01522
311.21 K, 97 kPa, Gas	0.01495
311.39 K, 298 kPa, Gas	0.01522
311.41 K, 200 kPa, Gas	0.01508
311.44 K, 97 kPa, Gas	0.01475
311.61 K, 298 kPa, Gas	0.01516
311.64 K, 200 kPa, Gas	0.01494
311.67 K, 98 kPa, Gas	0.01469
311.84 K, 298 kPa, Gas	0.01507
311.87 K, 877 kPa, Gas	0.01518
311.89 K, 200 kPa, Gas	0.01484
311.92 K, 97 kPa, Gas	0.01463
311.99 K, 676 kPa, Gas	0.01501
312.01 K, 610 kPa, Gas	0.01499
312.09 K, 298 kPa, Gas	0.01504
312.14 K, 200 kPa, Gas	0.01477
312.15 K, 876 kPa, Gas	0.01537
312.16 K, 409 kPa, Gas	0.0149
312.18 K, 97 kPa, Gas	0.01458
312.25 K, 298 kPa, Gas	0.01491
312.3 K, 675 kPa, Gas	0.01513
312.31 K, 610 kPa, Gas	0.01511
312.36 K, 200 kPa, Gas	0.01491
312.46 K, 875 kPa, Gas	0.01532
312.49 K, 408 kPa, Gas	0.01491
312.57 K, 97 kPa, Gas	0.01511
312.58 K, 298 kPa, Gas	0.01491
312.62 K, 673 kPa, Gas	0.01513
312.66 K, 608 kPa, Gas	0.01506
312.72 K, 200 kPa, Gas	0.01494
312.8 K, 873 kPa, Gas	0.01537
312.85 K, 408 kPa, Gas	0.01492
312.96 K, 298 kPa, Gas	0.01498
312.97 K, 97 kPa, Gas	0.01513
312.97 K, 673 kPa, Gas	0.01511
313.01 K, 607 kPa, Gas	0.01512
313.11 K, 200 kPa, Gas	0.01497
313.15 K, 872 kPa, Gas	0.01537
313.23 K, 408 kPa, Gas	0.01499
313.34 K, 672 kPa, Gas	0.01515
313.36 K, 298 kPa, Gas	0.01497
313.38 K, 608 kPa, Gas	0.01508
313.39 K, 98 kPa, Gas	0.01515
313.53 K, 200 kPa, Gas	0.015
313.62 K, 409 kPa, Gas	0.01501
313.78 K, 298 kPa, Gas	0.01501
313.83 K, 97 kPa, Gas	0.01516
313.96 K, 201 kPa, Gas	0.01503
314.3 K, 97 kPa, Gas	0.01518
321.31 K, 103 kPa, Gas	0.01573
321.31 K, 200 kPa, Gas	0.01591
321.31 K, 302 kPa, Gas	0.01608
321.46 K, 1449 kPa, Liquid	0.05663
321.54 K, 103 kPa, Gas	0.01562
321.54 K, 200 kPa, Gas	0.01577
321.54 K, 302 kPa, Gas	0.01588
321.56 K, 1449 kPa, Liquid	0.05669
321.75 K, 1115 kPa, Gas	0.0164
321.76 K, 302 kPa, Gas	0.01587
321.78 K, 103 kPa, Gas	0.01553
321.79 K, 200 kPa, Gas	0.01566
321.82 K, 1447 kPa, Liquid	0.05704
321.95 K, 1449 kPa, Liquid	0.05672
321.97 K, 6367 kPa, Liquid	0.06142
322.01 K, 302 kPa, Gas	0.01579
322.01 K, 11135 kPa, Liquid	0.06547
322.03 K, 200 kPa, Gas	0.0156
322.04 K, 103 kPa, Gas	0.01545
322.04 K, 1115 kPa, Gas	0.01641
322.11 K, 1199 kPa, Gas	0.01674
322.14 K, 959 kPa, Gas	0.01623
322.15 K, 16399 kPa, Liquid	0.06904
322.18 K, 862 kPa, Gas	0.0161
322.22 K, 1450 kPa, Liquid	0.05677
322.22 K, 6361 kPa, Liquid	0.06113
322.24 K, 721 kPa, Gas	0.01595
322.25 K, 302 kPa, Gas	0.01579
322.25 K, 21278 kPa, Liquid	0.07192
322.26 K, 11135 kPa, Liquid	0.06468
322.26 K, 16399 kPa, Liquid	0.06856
322.28 K, 617 kPa, Gas	0.01584
322.29 K, 200 kPa, Gas	0.01556
322.33 K, 103 kPa, Gas	0.01529
322.35 K, 1115 kPa, Gas	0.01644
322.36 K, 21276 kPa, Liquid	0.07119
322.37 K, 1451 kPa, Liquid	0.05654
322.37 K, 6358 kPa, Liquid	0.06119
322.38 K, 454 kPa, Gas	0.01579
322.39 K, 1199 kPa, Gas	0.01671
322.39 K, 11134 kPa, Liquid	0.06479
322.45 K, 958 kPa, Gas	0.01621
322.5 K, 861 kPa, Gas	0.01614
322.51 K, 302 kPa, Gas	0.01582
322.56 K, 720 kPa, Gas	0.01597
322.6 K, 16396 kPa, Liquid	0.06784
322.62 K, 617 kPa, Gas	0.01591
322.63 K, 6353 kPa, Liquid	0.06144
322.64 K, 201 kPa, Gas	0.01586
322.65 K, 1450 kPa, Liquid	0.05654
322.66 K, 11130 kPa, Liquid	0.06486
322.67 K, 1114 kPa, Gas	0.01646
322.69 K, 1199 kPa, Gas	0.01673
322.71 K, 21274 kPa, Liquid	0.0708
322.73 K, 453 kPa, Gas	0.01585
322.76 K, 958 kPa, Gas	0.01622
322.76 K, 16394 kPa, Liquid	0.06823
322.8 K, 6353 kPa, Liquid	0.06127
322.81 K, 103 kPa, Gas	0.01605
322.81 K, 11128 kPa, Liquid	0.06487
322.82 K, 860 kPa, Gas	0.01612
322.84 K, 1450 kPa, Liquid	0.05629
322.84 K, 21270 kPa, Liquid	0.07095
322.88 K, 302 kPa, Gas	0.01585
322.91 K, 720 kPa, Gas	0.01599
322.98 K, 616 kPa, Gas	0.01592
323 K, 200 kPa, Gas	0.01592
323 K, 1199 kPa, Gas	0.01678
323.01 K, 1114 kPa, Gas	0.01647
323.08 K, 11126 kPa, Liquid	0.06485
323.09 K, 6351 kPa, Liquid	0.06135
323.1 K, 453 kPa, Gas	0.0159
323.11 K, 957 kPa, Gas	0.01622
323.13 K, 1448 kPa, Liquid	0.05646
323.15 K, 16396 kPa, Liquid	0.06821
323.18 K, 859 kPa, Gas	0.01617
323.22 K, 103 kPa, Gas	0.01607
323.23 K, 21266 kPa, Liquid	0.07101
323.26 K, 11126 kPa, Liquid	0.06472
323.27 K, 719 kPa, Gas	0.016
323.28 K, 302 kPa, Gas	0.0159
323.28 K, 6351 kPa, Liquid	0.06102
323.33 K, 1199 kPa, Gas	0.01671
323.34 K, 614 kPa, Gas	0.01597
323.34 K, 1447 kPa, Liquid	0.05607
323.34 K, 16393 kPa, Liquid	0.06817
323.4 K, 200 kPa, Gas	0.01592
323.4 K, 21264 kPa, Liquid	0.07095
323.46 K, 956 kPa, Gas	0.01625
323.49 K, 453 kPa, Gas	0.01593
323.55 K, 858 kPa, Gas	0.01618
323.65 K, 103 kPa, Gas	0.01611
323.66 K, 718 kPa, Gas	0.01605
323.69 K, 302 kPa, Gas	0.01592
323.73 K, 612 kPa, Gas	0.01601
323.75 K, 16392 kPa, Liquid	0.06817
323.8 K, 21262 kPa, Liquid	0.07093
323.83 K, 200 kPa, Gas	0.01593
323.91 K, 453 kPa, Gas	0.01589
323.97 K, 16390 kPa, Liquid	0.068
324 K, 21259 kPa, Liquid	0.07084
324.11 K, 302 kPa, Gas	0.01598
324.12 K, 103 kPa, Gas	0.01612
324.29 K, 200 kPa, Gas	0.01599
324.62 K, 103 kPa, Gas	0.01618
331.07 K, 101 kPa, Gas	0.01664
331.09 K, 202 kPa, Gas	0.01678
331.12 K, 299 kPa, Gas	0.01699
331.29 K, 101 kPa, Gas	0.0165
331.3 K, 202 kPa, Gas	0.0167
331.34 K, 299 kPa, Gas	0.01685
331.53 K, 101 kPa, Gas	0.01639
331.54 K, 202 kPa, Gas	0.01658
331.56 K, 300 kPa, Gas	0.01677
331.78 K, 102 kPa, Gas	0.01632
331.78 K, 202 kPa, Gas	0.0165
331.8 K, 300 kPa, Gas	0.0167
331.8 K, 1511 kPa, Gas	0.01797
331.86 K, 1389 kPa, Gas	0.0177
331.9 K, 1236 kPa, Gas	0.01732
331.98 K, 1075 kPa, Gas	0.01717
332 K, 975 kPa, Gas	0.01697
332.04 K, 102 kPa, Gas	0.01627
332.04 K, 202 kPa, Gas	0.01642

Liquid
Conditions	thermal conductivity [W/m/K]
313.15 K	0.05899
323.15 K	0.05606
